Test results: ChEMBL document CHEMBL1201862, “PubChem BioAssay data set” (2004)
Calls of active or inactive are those of the source.

Tests used:
BJ [1] = assay: BJ-TERT fibroblast viability loss – cell-based, RAS-independent, luminescence, dose response (AID 1933); type: functional; details: Homo sapiens
BJ [2] = assay: cells; type: functional, cell-based; details: Homo sapiens
[3] = Luminescence-based dose response cell-based high throughput screening assay for cytotoxic compounds using the IEC-6 intestinal epithelial cell line. [Related pubchem assays: 1858 (Summary AID.), 1825 (Counterscreen.), 1907 (Confirmation screen.)]; type: functional
[4] = DRD fibroblast viability loss – cell-based, non-viral oncogenic, luminescence, dose response (AID 1934); type: functional; details: Homo sapiens
BJ [5] = assay: growth inhibition of engineered Ras-driven BJ cells – cell-based, alamar blue fluorescence, cherrypicked samples, dose response (AID 2631); type: functional; details: Homo sapiens;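 note: confirmatory dose-response assay in RAS-dependent BJ fibroblasts engineered with TERT, LT and ST, with cytotoxicity read by fluorescence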
cells = type: functional, cell-based
[6] = target: T1, Nuclear receptor subfamily 0 group B member 1 (Homo sapiens, UniProt P51843); type: functional, cell-based;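 note: HEK293T cells transfected with SF-1 and DAX-1 plus StAR promoter luciferase reporter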
T1 sequence (P51843 whole entry): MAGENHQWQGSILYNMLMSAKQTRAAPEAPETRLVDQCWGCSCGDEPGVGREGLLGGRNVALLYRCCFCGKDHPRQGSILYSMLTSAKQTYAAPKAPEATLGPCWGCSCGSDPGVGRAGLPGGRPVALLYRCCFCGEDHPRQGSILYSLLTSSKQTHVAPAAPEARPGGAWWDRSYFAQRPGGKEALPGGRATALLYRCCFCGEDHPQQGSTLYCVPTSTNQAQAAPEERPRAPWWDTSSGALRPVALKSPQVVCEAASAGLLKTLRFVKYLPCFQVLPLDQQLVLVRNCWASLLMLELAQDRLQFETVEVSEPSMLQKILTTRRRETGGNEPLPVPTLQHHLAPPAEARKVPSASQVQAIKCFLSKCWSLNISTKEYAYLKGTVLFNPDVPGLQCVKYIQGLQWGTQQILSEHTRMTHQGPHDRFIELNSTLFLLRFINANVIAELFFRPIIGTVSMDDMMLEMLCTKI

[7] = target: Epstein-Barr nuclear antigen 1 (Epstein-Barr virus (strain B95-8) (HHV-4) (Human herpesvirus 4), UniProt P03211); assay: inhibition of EBV nuclear antigen 1 DNA binding – biochemical, fluorescence polarization, 1536-well, dose response (AID 2381); set-up: species or system human gammaherpesvirus 4;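 note: fluorescence polarization of a Cy5 DNA probe bound by EBNA-1 protein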
Epstein-Barr nuclear antigen 1, sequence (P03211 whole entry): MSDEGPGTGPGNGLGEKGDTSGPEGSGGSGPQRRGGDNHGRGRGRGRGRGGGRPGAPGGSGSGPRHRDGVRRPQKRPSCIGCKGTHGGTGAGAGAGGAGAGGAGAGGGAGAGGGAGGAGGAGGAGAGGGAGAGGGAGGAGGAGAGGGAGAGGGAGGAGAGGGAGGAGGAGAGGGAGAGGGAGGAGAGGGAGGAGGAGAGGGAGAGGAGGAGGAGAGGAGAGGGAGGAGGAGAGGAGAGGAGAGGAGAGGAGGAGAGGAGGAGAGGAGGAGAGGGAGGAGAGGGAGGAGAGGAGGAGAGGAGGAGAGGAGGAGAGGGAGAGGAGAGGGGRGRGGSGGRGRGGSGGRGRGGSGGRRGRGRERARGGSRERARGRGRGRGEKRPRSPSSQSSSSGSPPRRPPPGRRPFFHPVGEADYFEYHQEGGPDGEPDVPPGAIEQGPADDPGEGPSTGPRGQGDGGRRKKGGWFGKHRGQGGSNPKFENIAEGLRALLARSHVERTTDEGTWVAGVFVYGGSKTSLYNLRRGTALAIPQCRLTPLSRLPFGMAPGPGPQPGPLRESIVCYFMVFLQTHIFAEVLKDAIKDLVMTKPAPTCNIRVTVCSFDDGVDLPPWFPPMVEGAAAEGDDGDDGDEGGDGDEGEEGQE

[8] = target: Lytic switch protein BZLF1 (Epstein-Barr virus (strain B95-8) (HHV-4) (Human herpesvirus 4), UniProt P03206); assay: inhibition of BZLF1 ZTA DNA binding – biochemical, fluorescence polarization, Epstein-Barr virus, 1536-well, counter-screen for EBNA-1 inhibitor project, dose response (AID 2377); set-up: species or system human gammaherpesvirus 4;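 note: fluorescence polarization of Cy5-labelled ZRE DNA probe bound by purified Zta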
Lytic switch protein BZLF1, sequence (P03206 whole entry): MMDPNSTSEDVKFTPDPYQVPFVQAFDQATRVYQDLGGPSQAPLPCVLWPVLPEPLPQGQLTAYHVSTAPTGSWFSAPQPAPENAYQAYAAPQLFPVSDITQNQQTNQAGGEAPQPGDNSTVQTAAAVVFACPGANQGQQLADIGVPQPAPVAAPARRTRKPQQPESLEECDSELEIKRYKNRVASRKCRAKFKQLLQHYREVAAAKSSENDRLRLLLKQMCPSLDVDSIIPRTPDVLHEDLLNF

SMILES | EC50 (BJ [1]) | EC50 (BJ [2]) | IC50 [3] | EC50 [4] | EC50 (BJ [5]) | IC50 (cells) | IC50 [6] | IC50 [7] | IC50 [8]
N#Cc1c(NC(=O)/C=C/c2ccco2)sc2c1CCCC2 | 181 nM (active) | 1480 nM (inconclusive) | 136 nM (active) | 278 nM (active) | < 104 nM (active) | > 67600 nM (inactive) | 1430 nM (active) |  | 
COc1ccc(-c2nonc2NC(=O)c2oc3ccc(F)cc3c2C)cc1OC |  |  |  |  |  |  |  | 16400 nM (not active) | > 111000 nM (not active)
